# Results published in patent US6297266A, “Thiazole derivatives” (Hoffmann-La Roche Inc., priority 1998, dated 2001).
# pIC50: −log10 of the molar value.
# Target: T1, vitronectin receptor αvβ3 (Homo sapiens, UniProt P05106+P06756)
# T1 construct: Human placenta is stored at -80° C. immediately after its excision; from tissue; host or cells: human placenta
# Experiment: inhibition of the binding of fibrinogen to vitronectin receptor αvβ3 (ELISA)
# Conditions: fibrinogen binding to immobilized αvβ3 from human placenta, pH 7.4, read-out: VNR IC50
# Experimental: The inhibition of the binding of adhesive proteins such as e.g. fibrinogen to vitronectin receptors (such as e.g. αvβ3, αvβ5, αvβ6, αvβ8, etc. or to the fibrinogen receptor (αIIbβ3) by compounds of formula (I) can be determined as described by L. Alig et al. (J.Med.Chem. 1992, 35, 4393-4407).
# In detail thereto, the wells of microtiter plates (Nunc-Immunoplate MaxiSorp) were coated overnight at 4° C. with the vitronectin receptor αvβ3 (from human placenta, 100 μl/well) in a buffer system with 150 mmol/1 NaCl, 1 mmol/CaCl2, 1 mmol/1 MgCl2, 0.0005% Triton X-100 and 20 mmol/1 Tris HCl, pH 7.4. The non-specific binding sites were blocked by incubation with 3.5% bovine serum albumin (BSA from Fluka) at 20° C. for at least 1 h. Before the beginning of the test the plates were washed in each case once with 150 mmol/1 NaCl, 1 mmol/1 CaCl2, 1 mmol/1 MgCl2 and 20 mmol/1 Tris HCl, pH 7.4 (buffer A). The thus-coated plates can be stored for at least 2 months in the presence of 0.05% NaN3 (in buffer A) at 4° C. in a humidity chamber without loss of binding activity. Fibrinogen (IMCO, free from fibronectin) was diluted to 1.5 μg/ml in buffer A in the presence of 1% BSA. The wells coated with the receptor were incubated with fibrinogen (100 μl/well) overnight at room temperature in the absence of or in the presence of increasing concentrations of RGDS (as the reference substance, H-Arg-Gly-Asp-Ser-OH) or the compounds to be measured. Non-bound fibrinogen was removed by three-fold washing with buffer A, bound fibrinogen was detected by an enzyme linked immunosorbent assay (ELISA) procedure. Antibodies of rabbits directed against human fibrinogen (Dakopatts, Denmark), diluted in buffer A in the presence of 0.1% BSA, were added at room temperature for 1 h., followed by incubation with biotinylated antibodies directed against rabbit immunoglobulin (Amersham) for 30 min. […] After addition of the peroxidase substrate ABTS (2,2'-azino-bis(3-ethylbenzothiazoline-6-sulphonic acid), Boehringer Mannheim) the enzyme activity was measured with a multichannel photometer (UVmax, Molecular Devices). […]
# T1 sequence (P06756 31-889 limits assumed): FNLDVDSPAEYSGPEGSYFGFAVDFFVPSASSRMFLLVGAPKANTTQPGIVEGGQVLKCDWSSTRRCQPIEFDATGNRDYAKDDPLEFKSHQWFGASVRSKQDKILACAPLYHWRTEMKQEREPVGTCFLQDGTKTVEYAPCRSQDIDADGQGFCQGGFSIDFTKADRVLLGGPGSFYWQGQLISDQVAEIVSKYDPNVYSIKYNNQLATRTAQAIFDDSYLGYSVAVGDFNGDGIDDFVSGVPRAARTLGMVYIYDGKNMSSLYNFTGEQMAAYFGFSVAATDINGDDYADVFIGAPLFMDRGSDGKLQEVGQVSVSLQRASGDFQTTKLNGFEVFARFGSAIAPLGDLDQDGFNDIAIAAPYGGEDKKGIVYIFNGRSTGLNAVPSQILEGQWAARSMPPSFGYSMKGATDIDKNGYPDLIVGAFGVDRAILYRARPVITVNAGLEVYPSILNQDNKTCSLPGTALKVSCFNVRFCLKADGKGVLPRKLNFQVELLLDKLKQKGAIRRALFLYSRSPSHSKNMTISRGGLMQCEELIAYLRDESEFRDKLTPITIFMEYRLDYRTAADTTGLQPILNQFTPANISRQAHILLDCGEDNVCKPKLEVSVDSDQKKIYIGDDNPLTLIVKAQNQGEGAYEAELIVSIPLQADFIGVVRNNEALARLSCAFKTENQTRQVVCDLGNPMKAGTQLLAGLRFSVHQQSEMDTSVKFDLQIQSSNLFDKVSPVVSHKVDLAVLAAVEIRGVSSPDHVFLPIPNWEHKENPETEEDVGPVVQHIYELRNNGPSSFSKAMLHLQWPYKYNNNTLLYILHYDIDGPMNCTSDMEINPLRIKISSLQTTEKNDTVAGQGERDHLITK
# T1 sequence (P06756 891-1048 limits assumed): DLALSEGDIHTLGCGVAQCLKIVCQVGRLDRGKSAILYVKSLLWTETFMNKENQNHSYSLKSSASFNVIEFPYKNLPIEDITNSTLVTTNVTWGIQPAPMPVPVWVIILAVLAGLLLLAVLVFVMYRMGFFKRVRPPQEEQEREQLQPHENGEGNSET
# T1 sequence (P05106 27-788): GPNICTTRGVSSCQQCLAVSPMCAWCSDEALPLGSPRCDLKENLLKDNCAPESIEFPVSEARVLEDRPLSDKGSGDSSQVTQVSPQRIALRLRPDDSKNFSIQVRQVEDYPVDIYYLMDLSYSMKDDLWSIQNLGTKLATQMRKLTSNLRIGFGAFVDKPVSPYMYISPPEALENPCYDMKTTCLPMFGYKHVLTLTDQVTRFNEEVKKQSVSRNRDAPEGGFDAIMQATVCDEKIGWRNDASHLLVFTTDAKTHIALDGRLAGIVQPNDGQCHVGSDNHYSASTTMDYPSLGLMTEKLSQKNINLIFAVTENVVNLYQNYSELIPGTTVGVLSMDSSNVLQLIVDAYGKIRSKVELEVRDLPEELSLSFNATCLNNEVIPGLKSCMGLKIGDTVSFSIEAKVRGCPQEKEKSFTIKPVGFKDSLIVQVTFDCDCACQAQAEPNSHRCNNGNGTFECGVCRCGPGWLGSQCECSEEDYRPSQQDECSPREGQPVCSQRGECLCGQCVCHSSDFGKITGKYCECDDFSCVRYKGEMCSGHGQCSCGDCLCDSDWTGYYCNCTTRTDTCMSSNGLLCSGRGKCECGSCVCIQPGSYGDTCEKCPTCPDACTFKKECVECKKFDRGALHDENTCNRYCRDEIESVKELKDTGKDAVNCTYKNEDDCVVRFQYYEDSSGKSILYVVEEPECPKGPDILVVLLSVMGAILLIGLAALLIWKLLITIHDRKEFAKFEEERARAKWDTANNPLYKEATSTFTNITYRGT
row,Compound,pIC50
1,O=C(O)COc1ccc(NC(=O)c2csc(NC(=O)NCc3ccccc3)n2)cc1 [[4-[[2-(3-benzyl-ureido)-thiazole-4-carbonyl]-amino]-phenoxy]-acetic acid],9.00
2,COc1cc(NC(=O)c2csc(NC(=O)NCc3ccccc3)n2)ccc1OCC(=O)O [(4-{[2-(3-benzyl-ureido)-thiazole-4-carbonyl]-amino}-2-methoxy-phenoxy)-acetic acid],9.70
3,O=C(O)COc1ccc(NC(=O)c2csc(NC(=O)NCc3ccccc3)n2)cc1C(=O)O [5-{[2-(3-benzyl-ureido)-thiazole-4-carbonyl]-amino}-2-carboxymethoxy-benzoic acid],8.89
